For 25 compounds, IC50 and inhibition results are on record in US8940769B2, “Biaryl benzoimidazole derivatives and pharmaceutical composition comprising the same” (Daewoong Pharmaceutical Co., Ltd., priority 2006, dated 2015).

In the first experiment the target is T1, human vanilloid receptor VR-1 (hVR1) (Homo sapiens, UniProt Q8NER1).
T1 construct: expressed in transfected cells; host or cells: HEK293 Tet-on cells (hVR1-HEK293), expression induced with doxycycline
T1 sequence (Q8NER1 whole entry): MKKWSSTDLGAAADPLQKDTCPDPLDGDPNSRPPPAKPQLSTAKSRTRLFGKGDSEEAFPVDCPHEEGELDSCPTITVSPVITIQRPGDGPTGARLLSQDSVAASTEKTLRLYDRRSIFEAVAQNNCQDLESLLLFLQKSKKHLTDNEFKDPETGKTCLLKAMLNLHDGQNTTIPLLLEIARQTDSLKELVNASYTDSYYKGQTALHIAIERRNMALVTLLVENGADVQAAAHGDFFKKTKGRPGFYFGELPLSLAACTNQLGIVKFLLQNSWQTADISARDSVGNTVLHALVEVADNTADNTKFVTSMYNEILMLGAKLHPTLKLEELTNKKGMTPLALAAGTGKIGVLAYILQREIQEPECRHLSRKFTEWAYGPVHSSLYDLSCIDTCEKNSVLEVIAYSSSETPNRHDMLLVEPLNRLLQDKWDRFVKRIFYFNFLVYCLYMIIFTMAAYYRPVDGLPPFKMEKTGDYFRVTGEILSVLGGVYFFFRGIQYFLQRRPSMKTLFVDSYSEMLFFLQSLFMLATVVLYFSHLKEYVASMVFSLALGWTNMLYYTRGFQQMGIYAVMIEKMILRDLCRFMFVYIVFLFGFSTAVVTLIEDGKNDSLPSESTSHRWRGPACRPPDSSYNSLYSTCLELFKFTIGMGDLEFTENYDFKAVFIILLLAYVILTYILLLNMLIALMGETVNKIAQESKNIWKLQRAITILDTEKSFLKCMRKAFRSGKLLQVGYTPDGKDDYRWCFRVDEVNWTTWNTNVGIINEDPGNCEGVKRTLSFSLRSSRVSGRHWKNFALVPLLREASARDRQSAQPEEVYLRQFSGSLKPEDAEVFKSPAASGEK
Nature of the experiment: Calcium influx test of vanilloid receptor (capsaicin-induced, Fluo-3/AM, hVR1-HEK293 cells). In kind it is cell-based. The conditions noted are these: calcium influx induced by 1 μM capsaicin, read-out: Inhibitory effect IC50 (nM) on calcium influx. On the procedure:
In order to measure an activity of the biaryl benzoimidazole derivative of the invention as an antagonist, a calcium influx test was performed.
An hVR1-HEK293 cell line is a cell line, in which a Human Embryonic Kidney (HEK) 293 Tet-on cell is transformed with a human vanilloid-1 gene (pTRE2hyg-hVR1, 7.8 kb). The cell line can regulate a VR-1 expression, depending on the administration of a tetracycline analogue, doxycycline. At two days before the calcium influx test, the cell line was cultured in media containing doxycycline to induce the VR-1 expression, and then used. First, the hVR1-HEK293 cells were cultured in T75 flasks to have a density of about 80%, and then detached from the bottom of the flasks by using trypsin. The detached cells were centrifuged and collected. Then, the cells were suspended in media containing 1 μg/mL doxycycline, and diluted to have a concentration of 2×10^5 to 4×10^5 cells/mL. 100 μL of the suspended cells were added to each well of 96-well black plate, cultured at 37° C. and 5% CO2 cell incubator for two days, and then used in the calcium influx test.
The compound was dissolved in dimethyl sulfoxide (DMSO), and then used for the calcium influx test.
In order to measure the calcium influx […], the cells were cultured in a solution containing Fluo-3/AM, which is a calcium indicator, at 37° C. for 90 minutes, so as to be permeated by a fluorescent dye. […] 193 μL D-PBS were added to each well, and then the compound was added thereto in various concentrations. To measure an activity as an antagonist, the cells were treated with 1 μM capsaicin to stimulate the calcium influx. The inhibitory effect of the compound when calcium influx was induced by 1 μM capsaicin was measured depending on its concentration using a fluorescence spectrometer, and the obtained data were substituted into a hill equation to analyze the values.
The inhibitory effect on calcium influx was measured with a single concentration of the compounds of the invention (200 nM), and the result thereof are shown in Table 2.
On to `CC(=O)OCc1cnc(-c2ccc(-c3nc4ccc(C(C)(C)C)cc4[nH]3)cc2)c(Cl)c1` [Compound 54, acetic acid 6-[4-(6-tert-butyl-1H-benzoimidazol-2-yl)-phenyl]-5-chloro-pyridin-3-yl methyl ester], for which the IC50 came to 319 nM.
On the same count and under the same terms, under `CC(C)(C)c1ccc2nc(-c3ccc(-c4ncc(C=O)cc4Cl)cc3)[nH]c2c1` [Compound 59, 6-[4-(6-tert-butyl-1H-benzoimidazol-2-yl)-phenyl]-5-chloro-pyridine-3-carbaldehyde] stands 29.5 nM.
Consider `CCNC(=O)c1cnc(-c2ccc(-c3nc4ccc(Br)cc4[nH]3)cc2)c(Cl)c1` [Compound 63, 6-[4-(6-bromo-1H-benzoimidazol-2-yl)-phenyl]-5-chloro-N-ethyl-nicotinamide], for which the IC50 stood at 397 nM.

The experiment is the same for the next values; noted with them: single concentration of compound 200 nM, 1 μM capsaicin, read-out: Inhibitory effect (%) on calcium influx.
`CC(=O)OCc1cnc(-c2ccc(-c3nc4ccc(C(C)(C)C)cc4[nH]3)cc2)c(Cl)c1` [Compound 54, acetic acid 6-[4-(6-tert-butyl-1H-benzoimidazol-2-yl)-phenyl]-5-chloro-pyridin-3-yl methyl ester]: the inhibition at 0.2 µM came out at 14.6%.
In the case of `C=Cc1cnc(-c2ccc(-c3nc4ccc(C(F)(F)F)cc4[nH]3)cc2)c(Cl)c1` [Compound 37, 2-[4-(3-chloro-5-vinyl-pyridin-2-yl)-phenyl]-6-trifluoromethyl-1H-benzoimidazole], the inhibition at 0.2 µM is 5.3%.
With `C=Cc1cnc(-c2ccc(-c3nc4ccc(Cl)cc4[nH]3)cc2)c(Cl)c1` [Compound 42, 6-chloro-2-[4-(3-chloro-5-vinyl-pyridin-2-yl)-phenyl]-1H-benzoimidazole], the inhibition at 0.2 µM was found to be 0.9%.
For the compound `C=Cc1cnc(-c2ccc(-c3nc4ccc(Br)cc4[nH]3)nc2)c(Cl)c1` [Compound 68, 6′-(6-bromo-1H-benzoimidazol-2-yl)-3-chloro-5-vinyl-[2,3′]bipyridinyl], the inhibition at 0.2 µM was -2.2%.
For `CN1CCN(c2ccc3nc(-c4ccc(-c5ncc(C(=O)O)cc5Cl)cn4)[nH]c3c2)CC1` [Compound 80, 3-chloro-6′-[6-(4-methyl-piperazin-1-yl)-1H-benzoimidazol-2-yl]-[2,3′]bipyridinyl-5-carboxylic acid], the inhibition at 0.2 µM was -5%.
Same read-out and setting: under `COC(=O)c1cnc(-c2ccc(-c3nc4ccc(N5CCOCC5)cc4[nH]3)nc2)c(Cl)c1` [Compound 71, 3-chloro-6′-(6-morpholin-4-yl-1H-benzoimidazol-2-yl)-[2,3′]bipyridinyl-5-carboxylic acid methyl ester] stands 7.1%; under `O=C(O)c1cnc(-c2ccc(-c3nc4ncc(Br)cc4[nH]3)nc2)c(Cl)c1` [Compound 84, 6′-(6-bromo-1H-imidazo[4,5-b]pyridin-2-yl)-3-chloro-[2,3′]bipyridinyl-5-carboxylic acid], 6.3%; under `C=Cc1cnc(-c2ccc(-c3nc4ccc(C(C)(C)C)cc4[nH]3)nc2)c(Cl)c1` [Compound 67, 6′-(6-tert-butyl-1H-benzoimidazol-2-yl)-3-chloro-5-vinyl-[2,3′]bipyridinyl], -8.8%.
Take `OCc1cnc(-c2ccc(-c3nc4c(Br)cc(Br)cc4[nH]3)cc2)c(Cl)c1` [Compound 33, {5-chloro-6-[4-(4,6-dibromo-1H-benzoimidazol-2-yl)-phenyl]-pyridin-3-yl}-methanol]: the inhibition at 0.2 µM was found to be 4.7%.
On the same count and under the same terms, under `C=Cc1cnc(-c2ccc(-c3nc4ccc(Cl)cc4[nH]3)nc2)c(Cl)c1` [Compound 69, 3-chloro-6′-(6-chloro-1H-benzoimidazol-2-yl)-5-vinyl-[2,3′]bipyridinyl] stands 11.3%; under `CCNC(=O)c1cnc(-c2ccc(-c3nc4c(Br)cc(C(F)(F)F)cc4[nH]3)cc2)c(Cl)c1` [Compound 65, 6-[4-(4-bromo-6-trifluoromethyl-1H-benzoimidazol-2-yl)-phenyl]-5-chloro-N-ethyl-nicotinamide], 30.9%; under `O=C(O)c1cnc(-c2ccc(-c3nc4ncc(Br)cc4[nH]3)cc2)c(Cl)c1` [Compound 46, 6-[4-(6-bromo-1H-imidazo[4,5-b]pyridin-2-yl)-phenyl]-5-chloro-nicotinic acid], 7.2%.
Same read-out and setting: under `CN1CCN(c2ccc3nc(-c4ccc(-c5ncc(CO)cc5Cl)cc4)[nH]c3c2)CC1` [Compound 27, (5-chloro-6-{4-[6-(4-methyl-piperazin-1-yl)-1H-benzoimidazol-2-yl]-phenyl}-pyridin-3-yl)-methanol] stands 4%; under `O=C(O)c1cnc(-c2ccc(-c3nc4ccc(C(F)(F)F)cc4[nH]3)nc2)c(Cl)c1` [Compound 81, 3-chloro-6′-(6-trifluoromethyl-1H-benzoimidazol-2-yl)-[2,3′]bipyridinyl-5-carboxylic acid], 9.6%; under `CC(C)(C)c1ccc2nc(-c3ccc(-c4ncc(C=O)cc4Cl)cc3)[nH]c2c1` [Compound 59, 6-[4-(6-tert-butyl-1H-benzoimidazol-2-yl)-phenyl]-5-chloro-pyridine-3-carbaldehyde], 82.5%.
Same read-out and setting: under `C=Cc1cnc(-c2ccc(-c3nc4ccc(C(F)(F)F)cc4[nH]3)nc2)c(Cl)c1` [Compound 66, 3-chloro-6′-(6-trifluoromethyl-1H-benzoimidazol-2-yl)-5-vinyl-[2,3′]bipyridinyl] stands 0.2%; under `O=C(O)c1cnc(-c2ccc(-c3nc4ccc(N5CCOCC5)cc4[nH]3)nc2)c(Cl)c1` [Compound 79, 3-chloro-6′-(6-morpholin-4-yl-1H-benzoimidazol-2-yl)-[2,3′]bipyridinyl-5-carboxylic acid], 3.3%; under `C=Cc1cnc(-c2ccc(-c3nc4ccc(C(C)(C)C)cc4[nH]3)cc2)c(Cl)c1` [Compound 38, 6-tert-butyl-2-[4-(3-chloro-5-vinyl-pyridin-2-yl)-phenyl]-1H-benzoimidazole], 11.7%.
In the case of `O=C(O)c1cnc(-c2ccc(-c3nc4c(Br)cc(C(F)(F)F)cc4[nH]3)nc2)c(Cl)c1` [Compound 85, 6′-(4-bromo-6-trifluoromethyl-1H-benzoimidazol-2-yl)-3-chloro-[2,3′]bipyridinyl-5-carboxylic acid], the inhibition at 0.2 µM worked out at 4.2%.
Take `CCNC(=O)c1cnc(-c2ccc(-c3nc4ccc(N5CCOCC5)cc4[nH]3)nc2)c(Cl)c1` [Compound 95, 3-chloro-6′-(6-morpholin-4-yl-1H-benzoimidazol-2-yl)-[2,3′]bipyridinyl-5-carboxylic acid ethyl amide]: the inhibition at 0.2 µM was -0.6%.
Turning to `C=Cc1cnc(-c2ccc(-c3nc4c(Br)cc(C(F)(F)F)cc4[nH]3)nc2)c(Cl)c1` [Compound 70, 6′-(4-bromo-6-trifluoromethyl-1H-benzoimidazol-2-yl)-3-chloro-5-vinyl-[2,3′]bipyridinyl], the inhibition at 0.2 µM amounted to 0%.
The same measure, in the same setting: the value for `CC(C)(C)c1ccc2nc(-c3ccc(-c4ncc(CBr)cc4Cl)cc3)[nH]c2c1` [Compound 35, 2-[4-(5-bromomethyl-3-chloro-pyridin-2-yl)-phenyl]-6-tert-butyl-1H-benzoimidazole] was 59.6%; that for `CCNC(=O)c1cnc(-c2ccc(-c3nc4ccc(C(F)(F)F)cc4[nH]3)nc2)c(Cl)c1` [Compound 97, 3-chloro-6′-(6-trifluoromethyl-1H-benzoimidazol-2-yl)-[2,3′]bipyridinyl-5-carboxylic acid ethyl amide] was 13.3%; that for `OCc1cnc(-c2ccc(-c3nc4c(Br)cc(C(F)(F)F)cc4[nH]3)cc2)c(Cl)c1` [Compound 32, {6-[4-(4-bromo-6-trifluoromethyl-1H-benzoimidazol-2-yl)-phenyl]-5-chloro-pyridin-3-yl}-methanol] was 6%.
Same read-out and setting: under `CCNC(=O)c1cnc(-c2ccc(-c3nc4ccc(Br)cc4[nH]3)cc2)c(Cl)c1` [Compound 63, 6-[4-(6-bromo-1H-benzoimidazol-2-yl)-phenyl]-5-chloro-N-ethyl-nicotinamide] stands 38.3%.

In general, IC50 refers to the concentration that gives 50% inhibition.
